The target in series [1] is T1, Dihydrofolate reductase (Escherichia coli, UniProt P0ABQ4).
T1 sequence (P0ABQ4 whole entry): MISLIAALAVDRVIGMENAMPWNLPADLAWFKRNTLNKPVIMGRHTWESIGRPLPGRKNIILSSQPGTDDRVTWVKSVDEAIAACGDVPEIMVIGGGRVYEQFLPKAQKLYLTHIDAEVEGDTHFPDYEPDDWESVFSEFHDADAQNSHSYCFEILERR

Series [2] deals with T2, Dihydrofolate reductase (Homo sapiens, UniProt P00374).
T2 sequence (P00374 whole entry): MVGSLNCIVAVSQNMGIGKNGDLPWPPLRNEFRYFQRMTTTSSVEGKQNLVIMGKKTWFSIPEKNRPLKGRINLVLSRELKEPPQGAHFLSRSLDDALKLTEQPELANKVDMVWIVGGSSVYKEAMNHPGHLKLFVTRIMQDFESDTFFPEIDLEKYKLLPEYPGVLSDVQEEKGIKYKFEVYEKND

For series [3], the system named is CCRF-CEM. Briefly: Protection against compound 4- or 5-induced effect in human CCRF-CEM cells assessed as growth inhibition at […]. Details: scale not given: the % may be the effect or the level left.
For series [4], the system named is CCRF-CEM. Briefly: Protection against methotrexate-induced effect in human CCRF-CEM cells assessed as growth inhibition at 0.1 mM. The series is classed as functional. Details: scale not given: the % may be the effect or the level left.
The subject of a further series is R2. Briefly: Growth inhibition of MTX-resistant human CCRF-CEM R2 cells. The series is classed as functional, cell-based.
Another series relates to R1. Briefly: Growth inhibition of MTX-resistant human CCRF-CEM R1 cells overexpressing DHFR.
Series [5] has as its system CCRF-CEM. Description: Growth inhibition of human CCRF-CEM leukemia cells at 5000 nM relative to leucovorin. It counts as functional.
The nature of series [6]: Cytotoxicity against human EKVX cells. The series is classed as cell-based.
A short description of series [7]: Cytotoxicity against BT549 cells. It counts as cell-based, BT-549. The settings on record: human.
For series [8], the system named is CCRF-CEM. Description: Growth inhibition of human CCRF-CEM cells. The series is classed as functional, cell-based.
Series [9] deals with T3, Folylpolyglutamate synthase, mitochondrial (Homo sapiens) (UniProt Q05932).
T3 sequence (whole entry): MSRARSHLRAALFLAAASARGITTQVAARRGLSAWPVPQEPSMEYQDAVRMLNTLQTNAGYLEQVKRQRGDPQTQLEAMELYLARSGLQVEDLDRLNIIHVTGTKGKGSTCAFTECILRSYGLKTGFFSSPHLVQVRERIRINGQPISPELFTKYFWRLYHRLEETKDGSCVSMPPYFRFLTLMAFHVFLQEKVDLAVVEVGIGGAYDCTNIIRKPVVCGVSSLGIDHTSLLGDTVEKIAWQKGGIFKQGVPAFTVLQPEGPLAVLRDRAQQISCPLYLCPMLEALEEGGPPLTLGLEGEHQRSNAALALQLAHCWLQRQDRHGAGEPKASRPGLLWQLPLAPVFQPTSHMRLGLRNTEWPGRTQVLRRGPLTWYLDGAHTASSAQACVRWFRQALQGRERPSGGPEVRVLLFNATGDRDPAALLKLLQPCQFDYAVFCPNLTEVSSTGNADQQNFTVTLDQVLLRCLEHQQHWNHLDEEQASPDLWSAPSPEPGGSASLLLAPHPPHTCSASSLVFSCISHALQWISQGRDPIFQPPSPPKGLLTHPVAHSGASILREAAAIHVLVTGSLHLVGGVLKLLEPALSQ
Briefly: Ratio of relative Vmax to Km of human recombinant FPGS.

Series [10] can be described thus: Cytotoxicity against NCI/ADR-RES cells. It counts as cell-based. Conditions: human.
The nature of series [11]: Cytotoxicity against HCC2998 cells. The series is classed as cell-based, HCC 2998. Conditions: human.
Series [12] is described as follows: Cytotoxicity against human CCRF-CEM leukemia cells. It counts as cell-based.
Series [13] has as its target Thymidylate synthase (Homo sapiens, UniProt P04818).
For series [14], the target named is Thymidylate synthase (Escherichia coli, UniProt C3SWJ7). Description: Inhibition of Escherichia coli thymidylate synthase.
Sequence of Thymidylate synthase (Escherichia coli, UniProt C3SWJ7) (C3SWJ7 whole entry): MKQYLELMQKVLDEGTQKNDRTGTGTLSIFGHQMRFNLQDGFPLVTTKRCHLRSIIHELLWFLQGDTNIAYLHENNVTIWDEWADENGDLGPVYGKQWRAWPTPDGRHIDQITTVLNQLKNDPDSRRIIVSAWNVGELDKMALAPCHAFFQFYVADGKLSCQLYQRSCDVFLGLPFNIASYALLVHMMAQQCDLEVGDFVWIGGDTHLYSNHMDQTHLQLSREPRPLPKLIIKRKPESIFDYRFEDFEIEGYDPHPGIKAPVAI
A further series concerns SF-268. Description: Cytotoxicity against SF268 cells. The settings on record: Homo sapiens. The series is classed as functional.
Series [15] concerns CCRF-CEM. Description: Growth inhibition of MTX-resistant human CCRF-CEM R30dm cells. It counts as functional, cell-based.
For series [16], the system named is CCRF-CEM. Description: Growth inhibition of human CCRF-CEM leukemia cells at 2400 nM relative to leucovorin. The series is classed as functional.
In series [17] the test system is CCRF-CEM. Briefly: Protection against 40 nM methotrexate-induced growth inhibition of human CCRF-CEM leukemia cells at 5 uM relative to control. It counts as functional. Details: scale not given: the % may be the effect or the level left.
Series [18] deals with CCRF-CEM. Description: Protection against 2400 nM N-[4-[(2-amino-6-methyl-3,4-dihydro-4-oxo-7H-pyrrolo[2,3-d]pyrimidin-5-yl)thio]-2chlorobenzoyl]-L-glutamic acid-induced growth inhibition of human CCRF-CEM cells at 5 uM relative to control. It counts as functional. Details: scale not given: the % may be the effect or the level left.
Series [19] concerns CCRF-CEM. Briefly: Protection against 5000 nM N-[4-[(2-amino-6-methyl-3,4-dihydro-4-oxo-7H-pyrrolo[2,3-d]pyrimidin-5-yl)thio]-2fluorobenzoyl]-L-glutamic acid-induced growth inhibition of human CCRF-CEM cells at 5 uM relative to control. The series is classed as functional. Details: scale not given: the % may be the effect or the level left.
Series [20] relates to CCRF-CEM. Description: Growth inhibition of human CCRF-CEM cells by thymidine at 5 uM relative to control. Details: scale not given: the % may be the effect or the level left.
Substrate in series [21]: Cc1[nH]c2nc(N)[nH]c(=O)c2c1Sc1ccc(C(=O)N[C@@H](CCC(=O)O)C(=O)O)c(F)c1
Description: (§1) Activity of human recombinant FPGS relative to AMT.

Substrate in series [22]: Cc1[nH]c2nc(N)[nH]c(=O)c2c1Sc1ccc(C(=O)N[C@@H](CCC(=O)O)C(=O)O)c(Cl)c1
The description is as §1.

Substrate in series [23]: Nc1nc(N)c2nc(CNc3ccc(C(=O)N[C@@H](CCC(=O)O)C(=O)O)cc3)cnc2n1
Briefly: (§2) Activity of human recombinant FPGS.

Substrate in series [24]: Cc1[nH]c2nc(N)[nH]c(=O)c2c1Sc1ccc(C(=O)N[C@@H](CCC(=O)O)C(=O)O)c(F)c1
The description is as §2.

Substrate in series [25]: Cc1[nH]c2nc(N)[nH]c(=O)c2c1Sc1ccc(C(=O)N[C@@H](CCC(=O)O)C(=O)O)c(Cl)c1
The series is described as §2.

What is called IC50 is the concentration that gives 50% inhibition. By EC50 is commonly meant the concentration that produces a half-maximal response. For orientation: GI50 means the concentration giving 50% growth inhibition. Broadly, the inhibition is the share of the control response that was lost under treatment. A word on the Km: it is the substrate concentration at which the rate is half of its maximum.

Sequence of Thymidylate synthase (Homo sapiens, UniProt P04818) (P04818 whole entry): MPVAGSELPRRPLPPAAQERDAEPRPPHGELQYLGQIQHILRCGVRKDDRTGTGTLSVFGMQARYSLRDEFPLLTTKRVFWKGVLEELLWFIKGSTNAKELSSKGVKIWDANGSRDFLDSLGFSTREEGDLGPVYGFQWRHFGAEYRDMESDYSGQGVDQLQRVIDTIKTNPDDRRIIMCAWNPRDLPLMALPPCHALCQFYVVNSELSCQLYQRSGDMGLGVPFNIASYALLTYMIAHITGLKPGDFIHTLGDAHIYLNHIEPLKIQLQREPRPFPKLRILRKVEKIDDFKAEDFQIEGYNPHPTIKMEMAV

Regarding `Cc1[nH]c2nc(N)[nH]c(=O)c2c1Sc1ccc(C(=O)N[C@@H](CCC(=O)O)C(=O)O)cc1`, the results for the IC50 at Dihydrofolate reductase [1] and against Dihydrofolate reductase [2] were 21 µM and 2.1 µM, respectively.
Consider `Nc1nc(=O)c2c([nH]1)NCC(CNc1ccc(C(=O)N[C@@H](CCC(=O)O)C(=O)O)cc1)N2C=O` (some centres not stated) [LEUCOVORIN], for which the Activity turned out to be 90% in the series on CCRF-CEM [3] and 6% in the series on CCRF-CEM [4].
For the molecule `CN(Cc1cnc2nc(N)nc(N)c2n1)c1ccc(C(=O)N[C@@H](CCC(=O)O)C(=O)O)cc1` [METHOTREXATE], the results for the EC50 with R2 and in the series with R1 were 2.1 µM and 0.68 µM, respectively.
Regarding `Cc1[nH]c2nc(N)[nH]c(=O)c2c1Sc1ccc(C(=O)N[C@@H](CCC(=O)O)C(=O)O)c(F)c1`, the IC50 is 21 µM against Dihydrofolate reductase [1], 2.1 µM against Dihydrofolate reductase [2], 0.054 µM against Thymidylate synthase [13] and 0.72 µM at Thymidylate synthase [14]. The same molecule showed a relative growth at 5 µM with CCRF-CEM [5] of 10. Also, the GI50 is 6.83 µM in series [6]; 2.21 µM in series [7]; 0.383 µM in [10]; less than 0.01 µM in series [11]; 0.712 µM in series [12]; 0.347 µM in the series on SF-268. Also, the EC50 in the series on R2 turned out to be 2.45 µM; in the series with CCRF-CEM [8], 0.215 µM; with R1 it was 0.505 µM; in the series on CCRF-CEM [15], 0.305 µM. Besides, the Ratio in series [9] was determined as 0.
For `Cc1[nH]c2nc(N)[nH]c(=O)c2c1Sc1ccc(C(=O)N[C@@H](CCC(=O)O)C(=O)O)c(Cl)c1`, the IC50 on Dihydrofolate reductase [1] was 40 µM; against Dihydrofolate reductase [2] it was 11 µM; against Thymidylate synthase [13], 0.051 µM; against Thymidylate synthase [14], 5.1 µM. Also, the GI50 is 0.758 µM in series [6]; less than 0.01 µM in [7]; 8.54 µM in series [10]; 1.48 µM in series [11]; 7.44 µM in the series on SF-268. Further, the EC50 in the series with R2 was 12 µM; in the series on CCRF-CEM [8] it was 0.69 µM; in the series on R1, 1.9 µM; in the series with CCRF-CEM [15] it was 1.2 µM. For the same molecule, in [9], the Ratio was determined as 0. In the series on CCRF-CEM [16], this molecule came in with an inhibition at 2.4 µM of 11%.
As to `Nc1nc(N)c2nc(CNc3ccc(C(=O)N[C@@H](CCC(=O)O)C(=O)O)cc3)cnc2n1`, the Ratio in series [9] was 0.23.
For `Cc1cn([C@H]2C[C@H](O)[C@@H](CO)O2)c(=O)[nH]c1=O` [DOXRIBTIMINE], the Activity is 10% in the series with CCRF-CEM [17], 92% in the series with CCRF-CEM [18], 96% with CCRF-CEM [19] and 40% in the series on CCRF-CEM [20].

B1: Folylpolyglutamate synthase, mitochondrial (Homo sapiens), Q05932 (protein)
chain: MSRARSHLRAALFLAAASARGITTQVAARRGLSAWPVPQEPSMEYQDAVRMLNTLQTNAGYLEQVKRQRGDPQTQLEAMELYLARSGLQVEDLDRLNIIHVTGTKGKGSTCAFTECILRSYGLKTGFFSSPHLVQVRERIRINGQPISPELFTKYFWRLYHRLEETKDGSCVSMPPYFRFLTLMAFHVFLQEKVDLAVVEVGIGGAYDCTNIIRKPVVCGVSSLGIDHTSLLGDTVEKIAWQKGGIFKQGVPAFTVLQPEGPLAVLRDRAQQISCPLYLCPMLEALEEGGPPLTLGLEGEHQRSNAALALQLAHCWLQRQDRHGAGEPKASRPGLLWQLPLAPVFQPTSHMRLGLRNTEWPGRTQVLRRGPLTWYLDGAHTASSAQACVRWFRQALQGRERPSGGPEVRVLLFNATGDRDPAALLKLLQPCQFDYAVFCPNLTEVSSTGNADQQNFTVTLDQVLLRCLEHQQHWNHLDEEQASPDLWSAPSPEPGGSASLLLAPHPPHTCSASSLVFSCISHALQWISQGRDPIFQPPSPPKGLLTHPVAHSGASILREAAAIHVLVTGSLHLVGGVLKLLEPALSQ
With B1, the Vmax in series [21] came out at 0; in series [22], 0; in series [23], 1. The Km in series [24] and in series [25] was less than 250 µM throughout.

The values above are taken from ChEMBL document CHEMBL1149301, “Benzoyl ring halogenated classical 2-amino-6-methyl-3,4-dihydro-4-oxo-5-substituted thiobenzoyl-7H-pyrrolo[2,3-d]pyrimidine antifolates as inhibitors of thymidylate synthase and as antitumor agents” (J Med Chem, 2004).
